For the test, the system named is P. aeruginosa strain FI-6(A366). Nature of the test: Opsonophagocytic assay (bactericidal activity with complement and polymorphonuclear cells). The class given is cell-based. The note with it: cefepime alone, 0 µg/ml 6D7 data point of Figure 1. As to the method:
Overnight cultures of P. aeruginosa FI-6 in adjusted Miller-Hinton broth containing 50 mg/l calcium chloride and 25 mg/l magnesium chloride were innoculated into media lacking or containing 1 µg/ml amikacin; this concentration of antibiotic allows almost normal growth of the bacterial culture. The bacterial cultures were incubated until mid-logarithmic phase of growth was attained, and then the bacteria were harvested by centrifugation, and resuspended to 5 x 10⁴ cells/ml in gelatin veronal buffer. […] Opsonic activity of antibodies directed against amikacin-treated bacteria was determined in the presence of 1 µg/ml amikacin. […] The amount of bacterial killing, was determined by plating 25 µl from each tube onto solid agar, growing the plated bacteria overnight, and counting the number of colonies on the plate. […]
The opsonophagocytic activity of varying amounts of monoclonal antibody 6D7 towards P. aeruginosa strain FI-6 cells was determined in the presence or absence of subinhibitory concentrations of the antibiotic, cefepime. […]

The structures appear in SMILES notation.

`CO/N=C(\C(=O)N[C@@H]1C(=O)N2C(C(=O)[O-])=C(C[N+]3(C)CCCC3)CS[C@H]12)c1csc(N)n1` [cefepime]: the survival is listed as 100%.

Source of the values: patent EP0450573A2, “Antibodies for the treatment and diagnosis of Pseudomonas aeruginosa infections” (priority 1990, dated 1991).
